Laboratory results reported in article PMC9161086, “Water-Soluble Trichogin GA IV-Derived Peptaibols Protect Tomato Plants From Botrytis cinerea Infection With Limited Impact on Plant Defenses” (Frontiers in Plant Science, 2022).

How the values were obtained:
[1] = set-up: method as in De Zotti et al., 2009; conditions: ref De Zotti et al., 2009; cited from earlier work
[2] = tested on: methicillin-resistant human pathogens; conditions: ref De Zotti et al., 2009; cited from earlier work
[3] = tested on: Solanum lycopersicum cv. Micro-Tom leaves; test: ROS detection with H2DCFDA on tomato leaves; conditions: 50 μM in water, 10-μl droplets on abaxial surface of detached Micro-Tom leaves; 24 and 48 h; H2DCFDA fluorescence microscopy
[4] = Hydrophilicity evaluated from HPLC retention times; assay type: physicochemical; conditions: comparison to native Trichogin GA IV, C18 column Phenomenex Jupiter 5 μm, 300 Å, 250 × 4.5 mm, gradient 60%–100% B in 30 min, A H2O/CH3CN 9:1 0.05% TFA, B CH3CN/H2O 9:1 0.05% TFA

Compound	Resistance to proteolysis [1]	Antibacterial activity against methicillin-resistant human pathogens [2]	ROS production on tomato leaves [3]	Hydrophilicity [4]
1-octanoyl-Aib-Gly-Leu-Aib-Gly-Gly-Leu-Aib-Gly-Ile-Lol [Trichogin GA IV, 11-residue lipopeptaibol naturally produced by Trichoderma longibrachiatum]	remarkable resistance to proteolysis	antibacterial activity		
CCCCCCCC(=O)NC(C)(C)C(=O)NCC(=O)N[C@@H](CC(C)C)C(=O)NC(C)(C)C(=O)N[C@@H](CCCCN)C(=O)NC(C)(C)C(=O)N[C@@H](CC(C)C)C(=O)NC(C)(C)C(=O)NCC(=O)N[C@H](C(=O)N[C@@H](CC(C)C)C(N)=O)[C@@H](C)CC [Pep 6r]			only Pep 4-treated leaves showed ROS production	+
